Experimental data taken from article PMC9194936, “Preclinical Activity and Pharmacokinetic/Pharmacodynamic Relationship for a Series of Novel Benzenesulfonamide Perforin Inhibitors” (ACS Pharmacology & Translational Science, 2022).
“And” between values parts separate entries of the source, which are not always exact repeats. Equal values may be shown once. Marks after values point to notes of the source that are not given here.

Experiments:
[1] = Binding to proteins in KHYG-1 cell media (RPMI with 0.1% BSA) by equilibrium dialysis; assay type: in vitro ADME; conditions: bovine, pH 7.4, read-out: free fraction in the KHYG-1 cell media
perforin = biological target: T1, perforin (Mus musculus, UniProt P10820); experiment: In vivo perforin inhibition (allogeneic bone marrow transfer assay)
T1 construct: endogenous in cells; host or cells: recipient cytotoxic lymphocytes (NK/CTL) of wild-type C57BL/6 mice, in vivo
T1 sequence (P10820 21-554): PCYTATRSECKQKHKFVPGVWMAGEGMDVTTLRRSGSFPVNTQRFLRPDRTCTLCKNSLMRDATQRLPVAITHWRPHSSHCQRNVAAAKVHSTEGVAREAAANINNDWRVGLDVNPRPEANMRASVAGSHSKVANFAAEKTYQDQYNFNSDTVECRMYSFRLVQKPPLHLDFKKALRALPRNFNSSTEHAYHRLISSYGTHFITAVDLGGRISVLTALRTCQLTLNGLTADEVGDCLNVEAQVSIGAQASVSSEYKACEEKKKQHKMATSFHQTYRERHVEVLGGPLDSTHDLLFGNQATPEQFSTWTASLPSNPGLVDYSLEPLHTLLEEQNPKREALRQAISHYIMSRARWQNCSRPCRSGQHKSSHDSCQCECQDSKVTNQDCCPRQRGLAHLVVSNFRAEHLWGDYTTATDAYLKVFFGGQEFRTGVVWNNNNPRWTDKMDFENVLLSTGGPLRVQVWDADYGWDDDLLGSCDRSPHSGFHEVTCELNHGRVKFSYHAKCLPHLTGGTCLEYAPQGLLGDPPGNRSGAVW
Protocol: This model was selected as a surrogate assay for graft rejection during allogeneic bone marrow/stem cell transplantation to enable rapid testing of perforin inhibition in vivo. Mice were transplanted with a mixture of equal numbers of allogeneic immunologically mismatched and syngeneic immunologically matched bone marrow. […] Allogeneic cell survival in spleen and peripheral blood was determined 24 h after transplant, using C57BL/6 perforin-deficient mice (100% perforin inhibition) and untreated C57BL/6 mice (0% perforin inhibition) as controls.
Compounds were tested for in vivo efficacy as described previously.[14] Age- (8–12 weeks) and sex-matched wild-type (H-2D^b, CD45.2^+) or perforin-deficient C57BL/6 mice (C57BL/6-Prf1^tm1Sdz/J; H-2D^b, CD45.2^+) received 12 ×10^6 bone marrow cells from both allogeneic BALB/c (H-2D^d) MHC-mismatched and syngeneic C57BL/6 (H-2D^b) MHC-matched mice (24 × 10^6 cells total). The wild-type recipient mice were treated with perforin inhibitor compounds by intraperitoneal injection in 20% hydroxypropyl-β-cyclodextrin vehicle (10 mL/kg), or with vehicle alone; perforin-deficient mice remained untreated. The mice were euthanized 24 h after bone marrow transfer for peripheral blood mononuclear cell (PBMC) and spleen collection.
Throughout the study, we utilized two strategies to distinguish between recipient, donor allogeneic, and donor syngeneic cells based on either fluorescent labeling prior to transplant or congenic marker expression (CD45.1/CD45.2). In the fluorescent dye approach, allogeneic wild-type BALB/c (H-2D^d, CD45.2^+) bone marrow was labeled with 1 μM carboxyfluorescein succinimidyl ester (CFSE) prior to mixing with syngeneic bone marrow from C57BL/6 congenic mice (CD45.1^+). Twenty-four hours after cell transfer, the harvested cells were stained with anti-CD45.1-phycoerythrin and anti-TER119-allophycocyanin monoclonal antibodies (BioLegend, San Diego, CA). TER119 was used for erythroid exclusion prior to the identification of allogeneic (CFSE^+) and syngeneic (CD45.1^+) donor cells. Using a second purely congenic marker approach, allogeneic BALB/c congenic (H-2D^d, CD45.1^+) bone marrow was mixed with syngeneic C57BL/6 double congenic (H-2D^b, CD45.1^+CD45.2^+) bone marrow prior to transfer. The harvested cells were stained with anti-CD45.1-phycoerythrin, anti-CD45.2-phycoerythrin-cyanine-7, and anti-TER119-allophycocyanin monoclonal antibodies (BioLegend, San Diego, CA). TER119 was used for erythroid exclusion, prior to identification of allogeneic donor (CD45.1^+), syngeneic donor (CD45.1^+ CD45.2^+), and recipient (CD45.2^+) cells. Dead cells were excluded using 7-aminoactinomycin D. Samples were acquired with an LSR Fortessa (BD Biosciences) and analyzed using FlowJo version 9 software (BD Biosciences). Prism version 9 (GraphPad) was used to calculate CTL indices as the percentage survival of syngeneic donor cells divided by the percentage survival of allogeneic donor cells. […] In vivo perforin inhibition animal experiments were approved by the Animal Ethics Committee of the QIMR Berghofer Medical Research Institute.

[2] = Bodyweight, spleen and blood cellularity in unmanipulated naive mice; assay type: in vivo, mouse
From the text: Splenic atrophy may occur as a direct treatment-related effect or indirectly subsequent to bodyweight loss.[32] Spleen size does normally vary so is not a reliable indicator of splenic dysfunction;[33] however, severe atrophy can prevent the normal function of the spleen and indicate systemic immunotoxicity.[34] Given that reduced splenic cellularity had not been noted in other in vivo mouse disease models using 1,[14],[15] we further investigated the impact of 1 on mouse spleen using extended dosing strategies on unmanipulated naïve mice and assessing changes in bodyweight, splenocyte, and blood cell counts and leukocyte frequencies in the spleen. The mice were treated with either 100 or 150 mg/kg of 1 given by intraperitoneal injection twice daily for up to 7 days.
For the determination of splenic cell counts, mouse spleens were harvested and the cells dispersed in media by gentle teasing and then centrifuged at 500g. Cell pellets were resuspended in media and total spleen cell counts were performed manually using a standard hemocytometer and light microscopy. Lymphocyte subsets were quantified by flow cytometry using the following antibody reagents: BV605 rat anti-mouse CD3 clone 17A2 (#564009, BD Biosciences); BV786 rat anti-mouse CD4 clone RM4–5 (#563727, BD Biosciences); BV711 rat anti-mouse CD8a clone 53-6.7 (#100748, BioLegend); PE-Cy7 mouse anti-mouse NK1.1 clone PK136 mouse (#552878, BD Biosciences); APC rat anti-mouse CD19 clone 1D3 (#550992, BD Biosciences). Peripheral blood cell counts and spleen white blood cell counts were determined on a Beckman Coulter Ac.T diff hematology analyzer.

[3] = 80 mg/kg bid (0 and 18 h), pooled with pretransplant dosing data
[4] = 120 mg/kg bid (0 and 18 h), pooled with pretransplant dosing data
[5] = 160 mg/kg bid (0 and 18 h), pooled with pretransplant dosing data
[6] = 160 mg/kg qd x 4 (0, 24, 48 h prior to and 18 h after transfer), 24 h after transplant

Structure (SMILES): CN1Cc2cc(-c3ccc(-c4cncc(NS(=O)(=O)c5ccccc5[N+](=O)[O-])c4)s3)ccc2C1=O [Compound 1, N-{5-[5-(2-methyl-1-oxo-2,3-dihydro-1H-isoindol-5-yl)-2-thienyl]-3-pyridinyl}-2-nitrobenzenesulfonamide]
- fraction unbound at 6 h, 10 μM [1]: 0.144
- % perforin inhibition, blood (perforin; [3]): -0.71%
- % perforin inhibition, spleen (perforin; [3]): 7.66%
- % perforin inhibition, blood (perforin; 80 mg/kg qd (one dose at 0 h)): -5.19%
- % perforin inhibition, spleen (perforin; 80 mg/kg qd (one dose at 0 h)): -4.19%
- % perforin inhibition, spleen (perforin; 80 mg/kg qd x 4 (0, 24, 48 h prior to and 18 h after transfer), 24 h after transplant): 7.66% and 7%
- % perforin inhibition, blood (perforin; 80 mg/kg qd x 4, 24 h after transplant): 26.33% and 26%
- % perforin inhibition, blood (perforin; 80 mg/kg tid (0, 9 and 18 h)): -1.34%
- % perforin inhibition, spleen (perforin; 80 mg/kg tid (0, 9 and 18 h)): -1.98%
- % perforin inhibition, blood (perforin; [4]): 43.66%
- % perforin inhibition, spleen (perforin; [4]): 30.50%
- perforin inhibition in vivo (in words) (perforin; 120 mg/kg followed by two doses of 80 mg/kg): moderate perforin inhibition
- % perforin inhibition, blood (perforin; 120 mg/kg qd (one dose at 0 h)): 17.84%
- % perforin inhibition, spleen (perforin; 120 mg/kg qd (one dose at 0 h)): 16.71%
- % perforin inhibition, spleen (perforin; 120 mg/kg qd x 4 (0, 24, 48 h prior to and 18 h after transfer), 24 h after transplant): 39.90% and 40%
- % perforin inhibition, blood (perforin; 120 mg/kg qd x 4, 24 h after transplant): 44.84% and 45%
- % perforin inhibition, blood (perforin; 120 mg/kg tid (0, 9 and 18 h)): 69.14%
- % perforin inhibition, spleen (perforin; 120 mg/kg tid (0, 9 and 18 h)): 40.42%
- % perforin inhibition, blood (perforin; [5]): 56.50%
- % perforin inhibition, spleen (perforin; [5]): 42.46%
- % perforin inhibition, spleen (perforin; [6]): 48.20% and 48%
- % perforin inhibition, blood (perforin; 160 mg/kg qd x 4, 24 h after transplant): 55.47% and 55%
- % perforin inhibition, blood (perforin; 120+80+80 mg/kg tid): 34.71%
- % perforin inhibition, spleen (perforin; 120+80+80 mg/kg tid): 15.22%
- perforin inhibition in vivo (in words) (perforin; three doses of 80 mg/kg): ineffective
- perforin inhibition in vivo (in words) (perforin; three doses of 120 mg/kg): highly active
- platelets ([2]; 100 mg/kg i.p. bid ×7, n = 2): 1041.5 ± 0.3 ^b ×10^9/L
- red blood cell ([2]; 100 mg/kg i.p. bid ×7, n = 2): 9.9 ± 0.3 ^b ×10^12/L
- white blood cell ([2]; 100 mg/kg i.p. bid ×7, n = 2): 6.1 ± 2.0 ^b ×10^9/L
- % change in bodyweight ([2]; 100 mg/kg i.p. bid ×7, n = 6): –5 ± 2%
- spleen: % CD3+CD4+ ([2]; 100 mg/kg i.p. bid ×7, n = 6): 7.9 ± 3.3%
- spleen: % CD3+CD8+ ([2]; 100 mg/kg i.p. bid ×7, n = 6): 9.1 ± 2.6%
- spleen: % CD19+ ([2]; 100 mg/kg i.p. bid ×7, n = 6): 45.4 ± 10.1%
- spleen: % NK1.1+ ([2]; 100 mg/kg i.p. bid ×7, n = 6): 2.3 ± 0.6%
- spleen: total cell count ([2]; 100 mg/kg i.p. bid ×7, n = 6): 0.39 ± 0.08 ×10^8
- % change in bodyweight ([2]; 150 mg/kg i.p. bid ×3, n = 3): –5.1 ± 5.9%
- platelets ([2]; 150 mg/kg i.p. bid ×3, n = 3): 1163 ± 149 ×10^9/L
- red blood cell ([2]; 150 mg/kg i.p. bid ×3, n = 3): 9.5 ± 0.9 ×10^12/L
- spleen: % CD3+CD4+ ([2]; 150 mg/kg i.p. bid ×3, n = 3): 5.6 ± 3.8%
- spleen: % CD3+CD8+ ([2]; 150 mg/kg i.p. bid ×3, n = 3): 10.6 ± 3.4%
- spleen: % CD19+ ([2]; 150 mg/kg i.p. bid ×3, n = 3): 41.4 ± 5.3%
- spleen: % NK1.1+ ([2]; 150 mg/kg i.p. bid ×3, n = 3): 5.0 ± 0.7%
- spleen: total cell count ([2]; 150 mg/kg i.p. bid ×3, n = 3): 0.41 ± 0.46 ×10^8
- white blood cell ([2]; 150 mg/kg i.p. bid ×3, n = 3): 6.0 ± 0.4 ×10^9/L
- weight loss, change in spleen or blood cell counts, reduction in splenic T, B or NK cells vs vehicle ([2]; 100 or 150 mg/kg i.p. twice daily for up to 7 days): Neither dosing schedule resulted in weight loss, change in spleen or blood cell counts or any reduction

Structure (SMILES): O=C1NCc2ccc(-c3ccc(-c4cncc(NS(=O)(=O)c5ccc(F)cc5F)c4)s3)cc21 [Compound 7, 2,4-difluoro-N-{5-[5-(3-oxo-2,3-dihydro-1H-isoindol-5-yl)-2-thienyl]-3-pyridinyl}benzenesulfonamide]
- % perforin inhibition, spleen (perforin; [6]): 26.55%
